Test [1] addresses intracellular GCN2 (phosphorylation of the GCN2 substrate eIF2α) (Homo sapiens, UniProt Q9P2K8). Kind of test: GCN2 cellular inhibition assay (AlphaScreen SureFire P-eIF2α Ser51, borrelidin-treated U2OS cells). Particulars: compounds of Formula II; biomarker assay, phosphorylated eIF2α Ser51 in borrelidin-treated U2OS cells. Type of test: cell-based. The gist of the method:
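Borrelidin at 10 μM is added to U2OS cells immediately after compound (4-fold dilution series, 40 μM top final) for 1 h at 37 °C. Phosphorylated eIF2α Ser51 in lysates is quantified by AlphaScreen and expressed as percent inhibition against borrelidin-stimulated controls.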
For orientation: Bead proximity is the source of the signal in Alpha formats.

Test [2] concerns the target GCN2 kinase (Homo sapiens, UniProt Q9P2K8). The experiment in a line: GCN2 enzyme inhibition assay (Transcreener ADP2 fluorescence polarization). Format: biochemical. Particulars: compounds of Formula II; 280 μM ATP, 4 nM GCN2 kinase. In short, it runs like this:
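Kinase activity is followed as ADP formation, measured by fluorescence polarization, using 4 nM enzyme with 280 μM ATP and 200 μM (RS)7 peptide at pH 7.5 and 25 °C for 1 h. Values come from a non-linear tight-binding fit.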
On the technique in general: In fluorescence polarisation assays a small probe gives low polarisation when free and higher when bound to something large.

Structures are written as SMILES.

intracellular GCN2 (phosphorylation of the GCN2 substrate eIF2α), sequence (Q9P2K8 whole entry): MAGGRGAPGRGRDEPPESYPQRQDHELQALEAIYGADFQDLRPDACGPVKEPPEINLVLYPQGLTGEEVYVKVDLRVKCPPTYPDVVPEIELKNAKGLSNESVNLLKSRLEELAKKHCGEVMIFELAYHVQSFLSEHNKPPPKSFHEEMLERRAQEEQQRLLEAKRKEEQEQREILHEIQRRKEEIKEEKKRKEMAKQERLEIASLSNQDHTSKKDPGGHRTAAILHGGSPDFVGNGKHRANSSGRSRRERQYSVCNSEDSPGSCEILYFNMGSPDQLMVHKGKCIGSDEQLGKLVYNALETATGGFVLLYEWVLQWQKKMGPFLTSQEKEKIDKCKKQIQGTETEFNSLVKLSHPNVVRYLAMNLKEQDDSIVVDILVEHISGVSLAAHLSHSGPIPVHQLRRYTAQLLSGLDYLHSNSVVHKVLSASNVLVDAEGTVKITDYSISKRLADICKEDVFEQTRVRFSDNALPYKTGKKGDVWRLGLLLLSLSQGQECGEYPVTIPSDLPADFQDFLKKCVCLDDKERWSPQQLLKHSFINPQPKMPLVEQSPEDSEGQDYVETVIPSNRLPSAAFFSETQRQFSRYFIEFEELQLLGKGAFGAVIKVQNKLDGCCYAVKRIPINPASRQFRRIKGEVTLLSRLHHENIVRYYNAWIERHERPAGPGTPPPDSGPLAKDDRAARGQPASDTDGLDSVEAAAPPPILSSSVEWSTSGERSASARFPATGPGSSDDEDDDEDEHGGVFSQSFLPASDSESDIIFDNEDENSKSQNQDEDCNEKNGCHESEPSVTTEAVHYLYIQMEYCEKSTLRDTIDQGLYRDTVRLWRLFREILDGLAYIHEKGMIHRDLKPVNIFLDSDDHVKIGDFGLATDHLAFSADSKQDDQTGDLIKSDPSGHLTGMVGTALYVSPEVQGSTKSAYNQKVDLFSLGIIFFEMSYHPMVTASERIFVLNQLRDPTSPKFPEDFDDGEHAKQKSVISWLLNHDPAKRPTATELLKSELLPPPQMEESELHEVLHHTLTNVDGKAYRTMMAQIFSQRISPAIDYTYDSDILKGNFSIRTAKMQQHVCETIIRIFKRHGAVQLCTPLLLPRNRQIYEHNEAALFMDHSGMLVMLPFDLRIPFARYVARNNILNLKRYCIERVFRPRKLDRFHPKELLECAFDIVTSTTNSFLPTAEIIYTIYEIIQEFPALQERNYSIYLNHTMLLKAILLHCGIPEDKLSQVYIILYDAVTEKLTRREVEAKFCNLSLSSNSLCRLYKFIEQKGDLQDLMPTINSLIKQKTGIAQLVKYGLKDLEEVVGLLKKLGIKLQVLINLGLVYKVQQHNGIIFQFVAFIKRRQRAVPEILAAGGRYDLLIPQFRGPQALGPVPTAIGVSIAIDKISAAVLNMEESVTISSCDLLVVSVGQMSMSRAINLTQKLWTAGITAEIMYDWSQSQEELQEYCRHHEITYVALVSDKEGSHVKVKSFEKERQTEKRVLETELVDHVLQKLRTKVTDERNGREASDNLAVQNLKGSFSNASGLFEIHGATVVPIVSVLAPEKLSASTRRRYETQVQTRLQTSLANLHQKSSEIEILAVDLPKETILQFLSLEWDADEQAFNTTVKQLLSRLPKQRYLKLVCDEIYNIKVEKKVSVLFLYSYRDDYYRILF
GCN2 kinase, sequence (Q9P2K8 whole entry): as above

With `NS(=O)(=O)CCC1CCCN(c2cc(-c3cnc4ccc(C(F)F)nn34)ncn2)C1` (stereo not drawn) [II-317, 2-(1-(6-(6-(Difluoromethyl)imidazo[12-b]pyridazin-3-yl)pyrimidin-4-yl)piperidin-3-yl)ethane-1-sulfonamide], the IC50 (in general, the concentration that gives 50% inhibition) in test [1] lay within 500 to 5000 nM. Also, the inhibitory constant (Ki) (in general, the equilibrium dissociation constant of an inhibitor or competing ligand from its target) in test [2] lay within 10 to 1000 nM.
For the compound `NS(=O)(=O)CCC1CN(c2cc(-c3cnc4ccc(C(F)F)nn34)ncn2)CCO1` (stereo not drawn) [II-318, 2-(4-(6-(6-(Difluoromethyl)imidazo[1,2-b]pyridazin-3-yl)pyrimidin-4-yl)morpholin-2-yl)ethane-1-sulfonamide], the IC50 in test [1] lay in the range of 500 to 5000 nM. In addition, in test [2], the Ki lay within 10 to 1000 nM.
Turning to `CS(=O)(=O)N1CC2OCCN(c3cc(-c4cnc5ccc(C(F)F)nn45)ncn3)C2C1` (stereo not drawn) [II-319, 4-(6-(6-(Difluoromethyl)imidazo[1,2-b]pyridazin-3-yl)pyrimidin-4-yl)-6-(methylsulfonyl)octahydropyrrolo[3,4-b][1,4]oxazine], the IC50 in test [1] was more than 5000 nM. The compound also gave a Ki in test [2] of 10 to 1000 nM.
In the same order, the values of `CS(=O)(=O)N1CC2CCCN(c3cc(-c4cnc5ccc(C(F)F)nn45)ncn3)C2C1` (stereo not drawn) [II-320, 6-(Difluoromethyl)-3-(6-(6-(methylsulfonyl)octahydro-1H-pyrrolo[3,4-b]pyridin-1-yl)pyrimidin-4-yl)imidazo[1,2-b]pyridazine] are more than 5000 nM and 10 to 1000 nM.
The compound `C[C@H]1CN(c2cc(-c3cnc4ccc(C(C)(F)F)nn34)ncn2)C[C@@H](CNS(C)(=O)=O)C1(F)F` [II-321, N-(((3S,5S)-1-(6-(6-(1,1-Difluoroethyl)imidazo[1,2-b]pyridazin-3-yl)pyrimidin-4-yl)-4,4-difluoro-5-methylpiperidin-3-yl)methyl)methanesulfonamide] yielded an IC50 in test [1] of more than 5000 nM. For the same compound, the Ki in test [2] was in the range of 10 to 1000 nM.
Compound `CC(F)(F)c1ccc2ncc(-c3cc(N4CCO[C@H](CNS(C)(=O)=O)C4)ncn3)n2n1` [II-322, (S)—N-((4-(6-(6-(1,1-Difluoroethyl)imidazo[1,2-b]pyridazin-3-yl)pyrimidin-4-yl)morpholin-2-yl)methyl)methanesulfonamide] returned an IC50 in test [1] of more than 5000 nM. For the same compound, the Ki in test [2] is 10 to 1000 nM.
In the same order, the values of `C[C@H]1CCCCN1c1cc(-c2cnc3ccc(C(F)F)nn23)ncn1` [II-323, (S)-6-(Difluoromethyl)-3-(6-(2-methylpiperidin-1-yl)pyrimidin-4-yl)imidazo[1,2-b]pyridazine] are 500 to 5000 nM and 10 to 1000 nM.
In the same order, the values of `C[C@@H]1COCCN1c1cc(-c2cnc3ccc(C(F)F)nn23)ncn1` [II-324, (R)-4-(6-(6-(Difluoromethyl)imidazo[1,2-b]pyridazin-3-yl)pyrimidin-4-yl)-3-methylmorpholine] are more than 5000 nM and 10 to 1000 nM.
In turn, `C[C@H]1COCCN1c1cc(-c2cnc3ccc(C(F)F)nn23)ncn1` [II-325, (S)-4-(6-(6-(Difluoromethyl)imidazo[1,2-b]pyridazin-3-yl)pyrimidin-4-yl)-3-methylmorpholine] returned an IC50 in test [1] of 500 to 5000 nM. Besides, the Ki in test [2] was in the range of 10 to 1000 nM.
In test [1], `FC(F)c1ccc2ncc(-c3cc(N4CCOC(Cn5cncn5)C4)ncn3)n2n1` (stereo not drawn) [II-326, 2-((1H-1,2,4-Triazol-1-yl)methyl)-4-(6-(6-(difluoromethyl)imidazo[1,2-b]pyridazin-3-yl)pyrimidin-4-yl)morpholine] yielded an IC50 of more than 5000 nM. The same compound gave a Ki in test [2] of 10 to 1000 nM.
In the same order, the values of `FC(F)c1ccc2ncc(-c3cc(N4CCCC(Cn5ccnn5)C4)ncn3)n2n1` (stereo not drawn) [II-327, 3-(6-(3-((1H-1,2,3-Triazol-1-yl)methyl)piperidin-1-yl)pyrimidin-4-yl)-6-(difluoromethyl)imidazo[1,2-b]pyridazine] are more than 5000 nM and 10 to 1000 nM.
In the same order, the values of `Cc1ccc2ncc(-c3cc(N4CCO[C@H](CNS(C)(=O)=O)C4)ncn3)n2n1` [II-328, (S)—N-((4-(6-(6-Methylimidazo[1,2-b]pyridazin-3-yl)pyrimidin-4-yl)morpholin-2-yl)methyl)methanesulfonamide] are 500 to 5000 nM and 10 to 1000 nM.
In test [1], `CC1C(CNS(C)(=O)=O)CC(F)(F)CN1c1cc(-c2cnc3ccc(C(F)F)nn23)ncn1` (stereo not drawn) [II-329, N-((1-(6-(6-(Difluoromethyl)imidazo[1,2-b]pyridazin-3-yl)pyrimidin-4-yl)-5,5-difluoro-2-methylpiperidin-3-yl)methyl)methanesulfonamide] had an IC50 of less than 500 nM. Further, the inhibitory constant (Ki) in test [2] was less than 10 nM.
In the same order, the values of `CS(=O)(=O)NC[C@H]1CN(c2cc(-c3cnc4ccc(C(F)F)nn34)ncn2)C[C@H](C(F)(F)F)O1` [II-330, N-(((2R,6R)-4-(6-(6-(Difluoromethyl)imidazo[1,2-b]pyridazin-3-yl)pyrimidin-4-yl)-6-(trifluoromethyl)morpholin-2-yl)methyl)methanesulfonamide] are 500 to 5000 nM and 10 to 1000 nM.
`CS(=O)(=O)NC[C@@H]1CN(c2cc(-c3cnc4ccc(C(F)F)nn34)ncn2)C[C@H](C(F)(F)F)O1` [II-331, N-(((2S,6R)-4-(6-(6-(Difluoromethyl)imidazo[1,2-b]pyridazin-3-yl)pyrimidin-4-yl)-6-(trifluoromethyl)morpholin-2-yl)methyl)methanesulfonamide] showed an IC50 in test [1] of less than 500 nM. The compound also registered a Ki in test [2] of less than 10 nM.
In test [1], `NS(=O)(=O)N1CC2OCCN(c3cc(-c4cnc5ccc(C(F)F)nn45)ncn3)C2C1` (stereo not drawn) [II-332, 4-(6-(6-(Difluoromethyl)imidazo[1,2-b]pyridazin-3-yl)pyrimidin-4-yl)hexahydropyrrolo[3,4-b][1,4]oxazine-6(2H)-sulfonamide] gave an IC50 of more than 5000 nM. Further, in test [2], the Ki was in the range of 10 to 1000 nM.
In the same order, the values of `NS(=O)(=O)N1CC2(CCCN(c3cc(-c4cnc5ccc(C(F)F)nn45)ncn3)C2)C1` [II-333, 6-(6-(6-(Difluoromethyl)imidazo[1,2-b]pyridazin-3-yl)pyrimidin-4-yl)-2,6-diazaspiro[3.5]nonane-2-sulfonamide] are 500 to 5000 nM and 10 to 1000 nM.
In the same order, the values of `NS(=O)(=O)N1CC2(CN(c3cc(-c4cnc5ccc(C(F)F)nn45)ncn3)CCO2)C1` [II-334, 8-(6-(6-(Difluoromethyl)imidazo[1,2-b]pyridazin-3-yl)pyrimidin-4-yl)-5-oxa-2,8-diazaspiro[3.5]nonane-2-sulfonamide] are 500 to 5000 nM and 10 to 1000 nM.
`NS(=O)(=O)N1CC2CCCN(c3cc(-c4cnc5ccc(C(F)F)nn45)ncn3)C2C1` (stereo not drawn) [II-335, 1-(6-(6-(Difluoromethyl)imidazo[1,2-b]pyridazin-3-yl)pyrimidin-4-yl)octahydro-6H-pyrrolo[3,4-b]pyridine-6-sulfonamide] came in with an IC50 in test [1] of more than 5000 nM. For the same compound, the Ki in test [2] fell in the range of 10 to 1000 nM.
In the same order, the values of `CC1NCCN(c2cc(-c3cnc4ccc(C(F)F)nn34)ncn2)C1CNS(C)(=O)=O` (stereo not drawn) [II-336, N-((1-(6-(6-(Difluoromethyl)imidazo[1,2-b]pyridazin-3-yl)pyrimidin-4-yl)-3-methylpiperazin-2-yl)methyl)methanesulfonamide] are more than 5000 nM and more than 1000 nM.
`CC(O)c1ccc2ncc(-c3cc(N4C[C@@H](CNS(C)(=O)=O)C(F)(F)[C@@H](C)C4)ncn3)n2n1` (stereo partly drawn) [II-337, N-(((3S,5S)-4,4-Difluoro-1-(6-(6-(1-hydroxyethyl)imidazo[1,2-b]pyridazin-3-yl)pyrimidin-4-yl)-5-methylpiperidin-3-yl)methyl)methanesulfonamide] showed a concentration for half-maximal inhibition (IC50) in test [1] of more than 5000 nM. The Ki in test [2] lay within 10 to 1000 nM.

The values above are taken from patent US10988477B2 (Merck Patent GmbH, priority 2018, dated 2021).
